Experimental data reported in paper PMC5228037, “Discovery and Mechanistic Characterization of Selective Inhibitors of H2S-producing Enzyme: 3-Mercaptopyruvate Sulfurtransferase (3MST) Targeting Active-site Cysteine Persulfide” (Scientific Reports, 2017).

Legend:
recombinant CSE = target: T1, recombinant CSE (Rattus norvegicus, UniProt P18757); experiment: Inhibitory activity towards purified CSE by gas chromatography; type: biochemical; settings: 100 μM compound, 10 mM L-cysteine
T1 construct: GST (N, cleaved yes); made in house; host or cells: E. coli DH5α
Procedure: Figure 2 Selectivity assessment of hit compounds for 3MST over other H2S/polysulfides-producing enzymes and rhodanese. (a) 3MST-Inhibitory activity of hit compounds at 10 and 100 μM in cell lysate of 3MST-expressing HEK293 cells. 100 μM 3MP and 100 μM DTT were added to the solution containing 0.1% DMSO as a cosolvent, and the mixture was incubated at 37 °C for 15 min. H2S production was measured by gas chromatography. All data are presented as the mean ± S.D. (100 μM: n = 3 or 4; 10 μM: n = 3). (b) Selectivity assessment of hit compounds at 100 μM towards CBS and CSE. Only DMSO was added to the control sample instead of DMSO solution containing hit compounds. H2S production was monitored by gas chromatography. All data are presented as the mean (n = 3). (c) Detection method for rhodanese activity (Sörbo method). (d) Selectivity assessment of hit compounds towards rhodanese. The results are mean ± S.D. (n = 4, three times). These values were determined based upon the absorbance of [Fe(SCN)3] at 460 nm (Sӧrbo method). Bovine rhodanese 1.3–1.7 units/mL, substrate: 52 mM Na2S2O3, 50 mM KCN, 0.004% (w/v) BSA, 100 μM compound and DMSO 1% (v/v) in 88 mM potassium phosphate buffer (pH 8.6) at room temperature for 5 min incubation. (e) Fluorescence confocal microscopic images of live COS7 cells transfected with 3MST or an empty vector[9] as a control. Cells were incubated with 50 μM SSP4, a fluorescent probe for sulfane sulfur, and 10 μM, 1 μM, 0.5 μM, 0.1 or 0 μM compound 3 in DMEM containing 0.6% DMSO for 30 min, then washed with HBSS and placed in fresh DMEM with 0‒10 μM compound 3 (Pre). 500 μM 3MP was added to the cells and the cells were incubated for 10 min (10 min). (f) Graphic representation of (e). F/F0 was calculated by dividing the fluorescence intensity of cells after addition of 500 μM 3MP (10 min) by that of cells before addition of 500 μM 3MP (Pre), then the mean F/F0 was determined from 5 cells. All data represent the mean ± standard error of the mean (SEM) of three experiments.
GST-tagged rat CSE-HA or rat CBS-HA was expressed in E. coli DH5α as follows. […]

[1] = target: T2, GST-fused m3MST (GST-3MST) (Mus musculus, UniProt Q99J99); experiment: 3MST inhibitor screening with H2S fluorescent probe HSip-1 (confirmation test, titration test); type: biochemical; settings: HSip-1 fluorescence, room temperature 3 hr; for inhibition at 10 µM: 10 μM compound, 50 μM 3MP, 40 μM DTT, mean±S.D. n = 4; for IC50: 0.25, 1, 3, 10, 30 μM compound, 3MP and DTT, read-out: IC50 of 3MST inhibition (titration test)
T2 construct: made in house; host or cells: E. coli BL21
T2 sequence (Q99J99 1-297): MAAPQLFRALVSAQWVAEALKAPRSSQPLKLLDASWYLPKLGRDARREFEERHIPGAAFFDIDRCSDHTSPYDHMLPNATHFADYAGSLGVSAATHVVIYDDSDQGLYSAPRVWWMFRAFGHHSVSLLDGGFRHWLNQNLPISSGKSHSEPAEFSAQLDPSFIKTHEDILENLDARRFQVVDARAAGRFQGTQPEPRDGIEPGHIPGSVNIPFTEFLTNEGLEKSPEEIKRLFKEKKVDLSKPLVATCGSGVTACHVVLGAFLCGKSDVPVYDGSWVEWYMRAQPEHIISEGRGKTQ

SMILES	inhibition at 100 µM (recombinant CSE; read-out: Inhibition of recombinant CSE enzymatic activity (H2S production))	inhibition at 10 µM [1]	IC50 [1]	Inhibition of recombinant CSE enzymatic activity (H2S production) (recombinant CSE)
NC(=O)c1ccsc1NC(=O)CSc1nc2ccccc2c(=O)[nH]1 [compound 1]	~25%	102.8 ± 0.2%	1.7 µM	
Cc1sc2nc(SCC(=O)c3ccc(O)cc3O)[nH]c(=O)c2c1C [compound 2]		81.7 ± 2.5%	6.3 µM	enhanced H2S production
Cc1cc(=O)[nH]c(SCC(=O)c2cccc3ccccc23)n1 [compound 3]		102 ± 2.9%	2.7 µM	almost inactive
O=C(O)c1cccc(NS(=O)(=O)c2ccccc2)c1 [compound 5]		95.5 ± 3.4%	5.7 µM	
